Assays:
[1] = test system: bedstraw; experiment: Test B pre/postemergence bedstraw; assay type: in vivo, Galium aparine
In short: (§1)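 Test chemicals in a non-phytotoxic solvent mixture with surfactant were sprayed preemergence onto planted seeds and postemergence onto plants 2 to 18 cm tall (1- to 4-leaf stage). After twelve to sixteen days in a greenhouse, injury was visually rated against untreated controls from 0 (no effect) to 10 (complete control).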

[2] = test system: blackgrass; experiment: Test B pre/postemergence blackgrass; assay type: in vivo, Alopecurus myosuroides
In short: as §1

[3] = test system: giant foxtail; experiment: Test B pre/postemergence giant foxtail; assay type: in vivo, Setaria faberii
In short: as §1

[4] = test system: morningglory; experiment: Test B pre/postemergence morningglory; assay type: in vivo, Ipomoea hederacea
In short: as §1

[5] = test system: pigweed; experiment: Test B pre/postemergence pigweed; assay type: in vivo, Amaranthus retroflexus
In short: as §1

[6] = test system: rape; experiment: Test B pre/postemergence rape; assay type: in vivo, Brassica napus
In short: as §1

[7] = test system: soybean; experiment: Test B pre/postemergence soybean; assay type: in vivo, Glycine max
In short: as §1

[8] = test system: sugar beet; experiment: Test B pre/postemergence sugar beet; assay type: in vivo, Beta vulgaris
In short: as §1

[9] = test system: velvetleaf; experiment: Test B pre/postemergence velvetleaf; assay type: in vivo, Abutilon theophrasti
In short: as §1

[10] = test system: wheat; experiment: Test B pre/postemergence wheat; assay type: in vivo, Triticum aestivum
In short: as §1

[11] = test system: wild oat; experiment: Test B pre/postemergence wild oat; assay type: in vivo, Avena fatua
In short: as §1

[12] = test system: purple nutsedge; experiment: Test B pre/postemergence purple nutsedge; assay type: in vivo, Cyperus rotundus
In short: as §1

[13] = test system: rice; experiment: Test B flood test rice; assay type: in vivo, Oryza sativa
In short: (§2)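 Read-out is a visual response score from 0 (no effect) to 10 (complete control), assigned by comparison with untreated controls. Treatment was applied at the 2-leaf stage, and plants stayed in the greenhouse for twelve to sixteen days before scoring.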

[14] = test system: smallflower flatsedge; experiment: Test B flood test smallflower flatsedge; assay type: in vivo, Cyperus difformis
In short: as §2

[15] = test system: duck salad; experiment: Test B flood test duck salad; assay type: in vivo, Heteranthera limosa
In short: as §2

[16] = test system: bamyardgrass; experiment: Test B flood test barnyardgrass; assay type: in vivo, Echinochloa crus-galli
In short: as §2

[17] = Postemergence, Rate 125 g/ha, scale of 0 to 10 where 0 is no effect and 10 is complete control
[18] = Preemergence, Rate 62 g/ha, scale 0 to 10 (0 no effect, 10 complete control)
[19] = Preemergence, Rate 125 g/ha, 0 is no effect, 10 is complete control
[20] = Preemergence, Rate 250 g/ha, scale 0 to 10, 0 is no effect, 10 is complete control
[21] = Preemergence, Rate 500 g/ha, scale 0 to 10 (0 no effect, 10 complete control)
[22] = Rate 62 g/ha, Postemergence, scale of 0 to 10 where 0 is no effect and 10 is complete control
[23] = Rate 250 g/ha, Postemergence, scale 0 to 10, 0 is no effect, 10 is complete control
[24] = Rate 500 g/ha, Postemergence, scale 0 to 10
[25] = Postemergence, Rate 1000 g/ha, scale 0 to 10 (0 no effect, 10 complete control)
[26] = Rate 250 g/ha, Postemergence (flood test), scale 0 to 10, 0 is no effect, 10 is complete control
[27] = Rate 500 g/ha, listed under Postemergence (flood test species), scale 0 to 10
[28] = Rate 2000 g/ha, Postemergence, scale 0 to 10

SMILES: Cc1nsc(C)c1-n1c(=O)on(C(=O)N(c2ccc(F)cc2)C(C)C)c1=O [Compound 157]
- Bedstraw plant response rating [1, 17]: 0
- Bedstraw plant response rating [1, 18]: 0
- Bedstraw plant response rating (0 to 10 scale) [1, 19]: 0
- Bedstraw plant response rating [1, 20]: 0
- Bedstraw plant response rating [1, 21]: 0
- Bedstraw plant response rating [1, 22]: 0
- Plant response rating, Bedstraw [1, 23]: 0
- Blackgrass plant response rating [2, 17]: 0
- Blackgrass plant response rating [2, 18]: 0
- Blackgrass plant response rating (0 to 10 scale) [2, 19]: 0
- Blackgrass plant response rating [2, 20]: 5
- Blackgrass plant response rating [2, 21]: 5
- Blackgrass plant response rating [2, 22]: 0
- Plant response rating, Blackgrass [2, 23]: 0
- Blackgrass plant response rating [2, 24]: 2
- Giant foxtail plant response rating [3, 17]: 1
- Giant foxtail plant response rating [3, 18]: 3
- Giant foxtail plant response rating (0 to 10 scale) [3, 19]: 6
- Giant foxtail plant response rating [3, 20]: 8
- Giant foxtail plant response rating [3, 21]: 10
- Giant foxtail plant response rating [3, 22]: 0
- Plant response rating, Giant foxtail [3, 23]: 4
- Giant foxtail plant response rating [3, 24]: 4
- Morningglory plant response rating [4, 17]: 1
- Morningglory plant response rating [4, 18]: 0
- Morningglory plant response rating (0 to 10 scale) [4, 19]: 0
- Morningglory plant response rating [4, 20]: 0
- Morningglory plant response rating [4, 21]: 3
- Morningglory plant response rating [4, 22]: 0
- Plant response rating, Morningglory [4, 23]: 1
- Morningglory plant response rating [4, 24]: 1
- Redroot pigweed plant response rating [5, 17]: 0
- Redroot pigweed plant response rating [5, 18]: 0
- Redroot pigweed plant response rating (0 to 10 scale) [5, 19]: 0
- Redroot pigweed plant response rating [5, 20]: 0
- Redroot pigweed plant response rating [5, 21]: 0
- Redroot pigweed plant response rating [5, 22]: 0
- Plant response rating, Redroot pigweed [5, 23]: 0
- Redroot pigweed plant response rating [5, 24]: 0
- Rape plant response rating [6, 17]: 0
- Rape plant response rating [6, 18]: 0
- Rape plant response rating (0 to 10 scale) [6, 19]: 0
- Rape plant response rating [6, 20]: 0
- Rape plant response rating [6, 21]: 0
- Rape plant response rating [6, 22]: 0
- Plant response rating, Rape [6, 23]: 0
- Rape plant response rating [6, 24]: 0
- Soybean plant response rating [7, 17]: 1
- Soybean plant response rating [7, 18]: 0
- Soybean plant response rating (0 to 10 scale) [7, 19]: 0
- Soybean plant response rating [7, 20]: 0
- Soybean plant response rating [7, 21]: 0
- Soybean plant response rating [7, 22]: 0
- Plant response rating, Soybean [7, 23]: 1
- Soybean plant response rating [7, 24]: 2
- Sugarbeets plant response rating [8, 17]: 0
- Sugarbeets plant response rating [8, 18]: 0
- Sugarbeets plant response rating (0 to 10 scale) [8, 19]: 0
- Sugarbeets plant response rating [8, 20]: 0
- Sugarbeets plant response rating [8, 21]: 0
- Sugarbeets plant response rating [8, 22]: 0
- Plant response rating, Sugarbeets [8, 23]: 0
- Sugarbeets plant response rating [8, 24]: 0
- Velvetleaf plant response rating [9, 18]: 0
- Velvetleaf plant response rating (0 to 10 scale) [9, 19]: 0
- Velvetleaf plant response rating [9, 20]: 0
- Velvetleaf plant response rating [9, 21]: 0
- Plant response rating, Velvetleaf [9, 23]: 0
- Velvetleaf plant response rating [9, 24]: 0
- Wheat plant response rating [10, 18]: 0
- Wheat plant response rating (0 to 10 scale) [10, 19]: 0
- Wheat plant response rating [10, 20]: 0
- Wheat plant response rating [10, 21]: 0
- Plant response rating, Wheat [10, 23]: 0
- Wheat plant response rating [10, 24]: 0
- Wild oats plant response rating [11, 18]: 0
- Wild oats plant response rating (0 to 10 scale) [11, 19]: 0
- Wild oats plant response rating [11, 20]: 0
- Wild oats plant response rating [11, 21]: 0
- Plant response rating, Wild oats [11, 23]: 0
- Wild oats plant response rating [11, 24]: 0
- Nutsedge plant response rating [12, 17]: 0
- Nutsedge plant response rating [12, 18]: 0
- Nutsedge plant response rating (0 to 10 scale) [12, 19]: 0
- Nutsedge plant response rating [12, 20]: 0
- Nutsedge plant response rating [12, 21]: 0
- Nutsedge plant response rating [12, 22]: 0
- Plant response rating, Nutsedge [12, 23]: 0
- Nutsedge plant response rating [12, 24]: 0
- Rice plant response rating [13, 25]: 0
- Plant response rating, Rice [13, 26]: 0
- Rice plant response rating [13, 27]: 0
- Rice plant response rating [13, 28]: 0
- S. Flatsedge plant response rating [14, 25]: 0
- Plant response rating, S. Flatsedge [14, 26]: 0
- S. Flatsedge plant response rating [14, 27]: 0
- S. Flatsedge plant response rating [14, 28]: 0
- Ducksalad plant response rating [15, 25]: 0
- Plant response rating, Ducksalad [15, 26]: 0
- Ducksalad plant response rating [15, 27]: 0
- Ducksalad plant response rating [15, 28]: 0
- Barnyardgrass plant response rating [16, 25]: 0
- Plant response rating, Barnyardgrass [16, 26]: 0
- Barnyardgrass plant response rating [16, 27]: 0
- Barnyardgrass plant response rating [16, 28]: 0
